Results: patent US8263606B2 (Xenon Pharmaceuticals Inc., priority 2008, dated 2012)

Tests used:
[1] = tested on: sodium channel; assay: Guanidine influx assay (14C-guanidine radiotracer flux, in vitro); format: cell-based, human or rat; details: guanidine influx assay using a known cell line that expresses a sodium channel; activity level class
From the text: This example describes an in vitro assay for testing and profiling test agents against human or rat sodium channels stably expressed in cells of either an endogenous or recombinant origin. The assay is also useful for determining the IC50 of a sodium channel blocking compound. The assay is based on the guanidine flux assay described by Reddy, N. L., et al., J. Med. Chem. (1998), 41(17):3298-302.
The guanidine influx assay is a radiotracer flux assay used to determine ion flux activity of sodium channels in a high-throughput microplate-based format. The assay uses ^14C-guanidine hydrochloride in combination with various known sodium channel modulators, to assay the potency of test agents. Potency is determined by an IC50 calculation. Selectivity is determined by comparing potency of the compound for the channel of interest to its potency against other sodium channels (also called ‘selectivity profiling’).
Each of the test agents is assayed against cells that express the channels of interest. Voltage gated sodium channels are either TTX sensitive or insensitive. This property is useful when evaluating the activities of a channel of interest when it resides in a mixed population with other sodium channels. The following Table 1 summarizes cell lines useful in screening for a certain channel activity in the presence or absence of TTX.
It is also possible to employ recombinant cells expressing these sodium channels. Cloning and propagation of recombinant cells are known to those skilled in the art (see, for example, Klugbauer, N, et al., EMBO J. (1995), 14(6):1084-90; and Lossin, C., et al., Neuron (2002), 34, pp. 877-884).
Cells expressing the channel of interest are grown according to the supplier or in the case of a recombinant cell in the presence of selective growth media such as G418 (Gibco/Invitrogen). The cells are disassociated from the culture dishes with an enzymatic solution (Ix) Trypsin/EDTA (Gibco/Invitrogen) and analyzed for density and viability using haemocytometer (Neubauer). Disassociated cells are washed and resuspended in their culture media then plated into Scintiplates (Beckman Coulter Inc.) (approximately 100,000 cells/well) and incubated at 37° C./5% CO2 for 20-24 hours. After an extensive wash with Low sodium HEPES-buffered saline solution (LNHBSS) (150 mM Choline Chloride, […] (Sigma), 1 mM Calcium Chloride, 5 mM Potassium Chloride, 1 mM Magnesium Chloride, 10 mM Glucose) agents diluted with LNHBSS are added to each well. (Varying concentrations of test agent may be used). The activation/radiolabel mixture contains aconitine (Sigma) to increase the percentage of time that the sodium channels are open, and ^14C-guanidine hydrochloride (ARC) to measure flux through the voltage-gated sodium channels.
After loading the cells with test agent and activation/radiolabel mixture, the Scintiplates are incubated at ambient temperature. Following the incubation, the Scintplates are extensively washed with LNHBSS supplemented with guanidine (Sigma). The Scintiplates are dried and then counted using a Wallac MicroBeta TriLux (Perkin-Elmer Life Sciences). The ability of the test agent to block sodium channel activity is determined by comparing the amount of ^14C-guanidine present inside the cells expressing the different sodium channels.
The IC50 value of a test agent for a specific sodium channel may be determined using the above general method. […] Typically the mid-point concentration of test agent is set at 1 μM, and sequential concentrations of half dilutions greater or smaller are applied (e.g. 0.5 μM; 5 μM and 0.25 μM; 10 μM and 0.125 μM; 20 μM etc.). The IC50 curve is calculated using the 4 Parameter Logistic Model or Sigmoidal Dose-Response Model formula (fit=(A+((B−A)/(1+((C/x)^D)))).
The fold selectivity, factor of selectivity or multiple of selectivity, is calculated by dividing the IC50 value of the test sodium channel by the reference sodium channel, for example, Nav1.5. […]

[2] = target: CYP3A4 (Homo sapiens, UniProt P08684); assay: Cytochrome P450 (CYP450) Inhibition Assay, CYP3A4 (Vivid fluorescence, BOMCC substrate); details: human, P450 Baculosomes (recombinant CYP3A4), probe BOMCC (Vivid substrate)
Chain of CYP3A4 (P08684 whole entry): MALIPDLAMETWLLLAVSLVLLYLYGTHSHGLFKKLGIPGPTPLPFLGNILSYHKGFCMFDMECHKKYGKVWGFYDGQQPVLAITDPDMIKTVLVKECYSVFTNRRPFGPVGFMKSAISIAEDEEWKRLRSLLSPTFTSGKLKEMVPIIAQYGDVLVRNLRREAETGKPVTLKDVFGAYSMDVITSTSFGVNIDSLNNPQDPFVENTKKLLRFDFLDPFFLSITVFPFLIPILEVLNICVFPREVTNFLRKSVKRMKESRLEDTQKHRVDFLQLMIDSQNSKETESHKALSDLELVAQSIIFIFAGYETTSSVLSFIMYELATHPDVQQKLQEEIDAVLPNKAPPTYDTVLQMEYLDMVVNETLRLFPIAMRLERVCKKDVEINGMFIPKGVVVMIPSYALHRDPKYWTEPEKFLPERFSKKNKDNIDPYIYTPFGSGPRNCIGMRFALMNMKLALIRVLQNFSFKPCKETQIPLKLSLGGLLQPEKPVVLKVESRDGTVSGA

SMILES	IC50 [1] [nM]	inhibition at 10 µM [2] [%]
Cn1cc(CN2C(=O)C3(COc4cc5c(cc43)CCO5)c3ccccc32)c(C(F)(F)F)n1 (stereo not drawn) [Example 4.9, 1′-{[1-methyl-3-(trifluoromethyl)-1H-pyrazol-4-yl]methyl}-5,6-dihydrospiro[benzo[1,2-b:5,4-b′]difuran-3,3′-indol]-2′(1′H)-one]	100 to 1000	> 50
CCn1cncc1CN1C(=O)C2(COc3cc4c(cc32)CCO4)c2ccccc21 (stereo not drawn) [Example 4.21, 1′-[(1-ethyl-1H-imidazol-5-yl)methyl]-5,6-dihydrospiro[benzo[1,2-b:5,4-b′]difuran-3,3′-indol]-2′(1′H)-one]	100 to 1000	> 50
COc1cc2c(cc1C)C1(CO2)C(=O)N(Cc2ccccn2)c2ccccc21 (stereo not drawn) [Example 4.62, 6-methoxy-5-methyl-1′-(pyridin-2-ylmethyl)spiro[1-benzofuran-3,3′-indol]-2′(1′H)-one]	1000 to 10000	> 50
O=C1N(Cc2ccc(C(F)(F)F)o2)c2ccccc2C12CCOc1cc3c(cc12)CCO3 (stereo not drawn) [Example 4.70, 1-{[5-(trifluoromethyl)furan-2-yl]methyl}-2,3,6,7-tetrahydrospiro[furo[3,2-g]chromene-5,3′-indol]-2′(1′H)-one]	1000 to 10000	> 50
N#Cc1ccc2c(c1)OCC21C(=O)N(Cc2ccc3c(c2)OCCO3)c2ccccc21 (stereo not drawn) [Example 4.111, 1′-(2,3-dihydro-1,4-benzodioxin-6-ylmethyl)-2′-oxo-1′,2′-dihydrospiro[1-benzofuran-3,3′-indole]-6-carbonitrile]	100 to 1000	< 50
O=C1N(Cc2ncccc2Cl)c2ccccc2C12COc1cc3c(cc12)OCCO3 (stereo not drawn) [Example 4.112, 1-[(3-chloropyridin-2-yl)methyl]-2,3-dihydrospiro[furo[2,3-g][1,4]benzodioxine-8,3′-indol]-2′(1′H)-one]	1 to 100	> 50
O=C1N(Cc2ncccc2C(F)(F)F)c2cccc(F)c2C12COc1cc3c(cc12)OCCO3 (stereo not drawn) [Example 5.20, 4′-fluoro-1′-{[3-(trifluoromethyl)pyridin-2-yl]methyl}-2,3-dihydrospiro[furo[2,3-g][1,4]benzodioxine-8,3′-indol]-2′(1′H)-one]	1 to 100	< 50
O=C1N(Cc2ccccn2)c2ccccc2C12COc1cc3c(c(F)c12)OCCO3 (stereo not drawn) [Example 5.25, 9-fluoro-1′-(pyridin-2-ylmethyl)-2,3-dihydro-spiro[furo[2,3-g][1,4]benzodioxine-8,3′-indol]-2′(1′H)-one]	1 to 100	> 50
O=C1N(Cc2ncccc2C(F)(F)F)c2ccccc2C12COc1cc3c(c(F)c12)OCCO3 (stereo not drawn) [Example 5.26, 9-fluoro-1′-{[3-(trifluoromethyl)pyridin-2-yl]methyl}-2,3-dihydrospiro[furo[2,3-g][1,4]benzodioxine-8,3′-indol]-2′(1′H)-one]	1 to 100	< 50
O=C1N(Cc2ccc(O)cn2)c2ccccc2C12COc1cc3c(c(F)c12)OCCO3 (stereo not drawn) [Example 5.27, 9-fluoro-1′-[(5-hydroxypyridin-2-yl)methyl]-2,3-dihydrospiro[furo[2,3-g][1,4]benzodioxine-8,3′-indol]-2′(1′H)-one]	100 to 1000	> 50
O=C1N(Cc2ccccn2)c2ccccc2C12COc1cc3c(cc12)OCCC3 (stereo not drawn) [Example 5.28, 1′-(pyridin-2-ylmethyl)-7,8-dihydro-6H-spiro-[furo[2,3-g]chromene-3,3′-indol]-2′(1′H)-one]	1 to 100	> 50

Other lines, results leading:

IC50 [1] [nM]	inhibition at 10 µM [2] [%]	SMILES
1 to 100	< 50	O=C1N(C[C@@H]2CCCO2)c2ccccc2C12COc1cc3c(cc12)CCO3 (stereo partly drawn) [Example 4.5, 1′-[(2S)-tetrahydrofuran-2-ylmethyl]-5,6-dihydrospiro[benzo[1,2-b:5,4-b′]difuran-3,3′-indol]-2′(1′H)-one]
1 to 100	> 50	COC(=O)c1ccc(CN2C(=O)C3(COc4cc5c(cc43)CCO5)c3ccccc32)o1 (stereo not drawn) [Example 4.7, methyl 5-[(2′-oxo-5,6-dihydrospiro[benzo[1,2-b:5,4-b′]difuran-3,3′-indol]-1′(2′H)-yl)methyl]furan-2-carboxylate]
1 to 100	< 50	COC(=O)c1coc(CN2C(=O)C3(COc4cc5c(cc43)CCO5)c3ccccc32)n1 (stereo not drawn) [Example 4.11, methyl 2-[(2′-oxo-5,6-dihydrospiro[benzo[1,2-b:5,4-b′]difuran-3,3′-indol]-1′(2′H)-yl)methyl]-1,3-oxazole-4-carboxylate]
1 to 100	< 50	O=C1N(Cc2ccccc2F)c2ccccc2C12COc1cc3c(cc12)CCO3 (stereo not drawn) [Example 4.12, 1′-(2-fluorobenzyl)-5,6-dihydrospiro[benzo[1,2-b:5,4-b′]difuran-3,3′-indol]-2′(1′H)-one]
1 to 100	> 50	O=C1N(Cc2ccc(F)cc2)c2ccccc2C12COc1cc3c(cc12)CCO3 (stereo not drawn) [Example 4.13, 1′-(4-fluorobenzyl)-5,6-dihydrospiro[benzo[1,2-b:5,4-b′]difuran-3,3′-indol]-2′(1′H)-one]
1 to 100	> 50	O=C1N(Cc2ccccc2)c2ccccc2C12COc1cc3c(cc12)CCO3 (stereo not drawn) [Example 4.14, 1′-benzyl-5,6-dihydrospiro[benzo[1,2-b:5,4-b′]difuran-3,3′-indol]-2′(1′H)-one]
1 to 100	< 50	O=C1N(Cc2ccc(-c3ccccc3)cc2)c2ccccc2C12COc1cc3c(cc12)CCO3 (stereo not drawn) [Example 4.15, 1′-(biphenyl-4-ylmethyl)-5,6-dihydrospiro[benzo[1,2-b:5,4-b′]difuran-3,3′-indol]-2′(1′H)-one]
1 to 100	> 50	O=C1N(Cc2cc(Br)no2)c2ccccc2C12COc1cc3c(cc12)CCO3 (stereo not drawn) [Example 4.17, 1-[(3-bromoisoxazol-5-yl)methyl]-5,6-dihydrospiro[benzo[1,2-b:5,4-b′]difuran-3,3′-indol]-2′(1′H)-one]
1 to 100	> 50	O=C1N(Cc2ccc(Br)o2)c2ccccc2C12COc1cc3c(cc12)CCO3 (stereo not drawn) [Example 4.18, 1′-[(5-bromofuran-2-yl)methyl]-5,6-dihydrospiro[benzo[1,2-b:5,4-b′]difuran-3,3′-indol]-2′(1′H)-one]
1 to 100	> 50	CC(C)(C)OC(=O)NC(CCN1C(=O)C2(COc3cc4c(cc32)OCO4)c2ccccc21)C1CC1 (stereo not drawn) [Example 4.78, tert-butyl [1-cyclopropyl-3-(2′-oxospiro[furo[2,3-f][1,3]benzodioxole-7,3′-indol]-1′(2′H)-yl)propyl]carbamate]
1 to 100	> 50	O=C1N(Cc2ccc(C(F)(F)F)o2)c2cccc(Cl)c2C12COc1cc3c(cc12)OCO3 (stereo not drawn) [Example 4.90, 4′-chloro-1′-{[5-(trifluoromethyl)-2-furyl]methyl}spiro[furo[2,3-f][1,3]benzodioxole-7,3′-indol]-2′(1′H)-one]
1 to 100	> 50	O=C1N(Cc2ccc(C(F)(F)F)nc2)c2ccccc2C12COc1cc3c(cc12)OCCO3 (stereo not drawn) [Example 4.98, 1-{[6-(trifluoromethyl)pyridin-3-yl]methyl}-2,3-dihydrospiro[furo[2,3-g][1,4]benzodioxine-8,3′-indol]-2′(1′H)-one]
1 to 100	< 50	CCC(=O)CN1C(=O)[C@@]2(COc3cc4c(cc32)OCCO4)c2ccccc21 [Example 4.109, (S)-1′-(2-oxobutyl)-3,7-dihydro-2H-spiro[benzofuro[5,6-b][1,4]dioxine-8,3′-indolin]-2′-one]
